{"source": "patent US11160797B2", "about": "“Pyridinone derivatives and their use as selective ALK-2 inhibitors” (NOVARTIS AG, priority 2017, dated 2021)", "key": {"female Wistar rats": {"system": "female Wistar rats", "experiment": "Achilles midpoint tenotomy-induced heterotopic ossification in rats", "assay_type": "in vivo, rat", "conditions": "10 mg/kg q.d. oral", "from_the_text": "To test whether compound A was able to prevent trauma-induced heterotopic ossification (HO) of soft tissue, we tested its therapeutic efficacy in a rat model of unilateral Achilles midpoint tenotomy (Rooney et al., Matrix 12: 274-281, 1992). To this end, the left Achilles tendon of 8-week-old female Wistar rats (body weight between 190-265 g) was completely transected using a sterile scalpel (blade number 11) under isoflurane inhalation narcosis with concomitant analgesic treatment applying 0.03 mg/kg buprenorphine for 48 hours every 10-12 h subcutaneously. Preventive oral treatment with compound A (10 mg/kg q.d.) or vehicle (sodium carboxymethyl cellulose:water:Tween 80, 0.5:99:0.5) was given for 10 weeks starting on the day of surgery (n=11-12 rats per group). […] Treatment efficacy was assessed longitudinally by taking radiographs of the operated distal leg (Faxitron LX-60 system) at 4 and 10 weeks post-tenotomy. Heterotopic bone volume was quantified in vivo by micro-computed tomography (micro-CT) under isoflurane inhalation narcosis (vivaCT40 instrument, Scanco Medical AG; 17.5 μm resolution) at 6 and 9 weeks post-surgery. […]"}, "[1]": {"system": "18-month-old Wistar female rats", "experiment": "Bone gain in aged rats (pQCT and micro-CT, proximal tibia metaphysis)", "assay_type": "in vivo, rat", "conditions": "5 mg/kg q.d. oral, 8 weeks, mean ± SEM", "method": "To assess the bone anabolic potential of compound A, its therapeutic efficacy in aged female rats as a model of age-related human osteoporosis and other low bone mass conditions was tested. To this end, 18-month-old Wistar female rats (n=8-9 rats per group; body weight range: 330-460 g) were subjected to two-month once daily oral treatment with compound A (5 mg/kg q.d.) or vehicle (sodium carboxymethyl cellulose:water:Tween 80, 0.5:99:0.5). Rats were housed at 25° C. with a 12:12 h light-dark cycle and were fed a standard rodent diet containing 18.2% protein and 3.0% fat with an energy content of 15.8 MJ/kg (3890, Provimi Kliba SA) with food and water provided ad libitum. Treatment efficacy was determined by in vivo peripheral quantitative computed tomography (pQCT) and micro-computed tomography (micro-CT) in the left proximal tibia metaphysis under isoflurane inhalation narcosis (Stratec-Norland XCT-2000 pQCT; voxel size: 0.1 mm×0.1 mm×0.5 mm; vivaCT40 instrument, Scanco Medical AG; 12.5 μm resolution) after 8 weeks of treatment. […] The latter was related to enhanced trabecular thickness, but not number. Thus, compound A is bone anabolic in the aged skeleton."}, "male Sprague Dawley rats": {"system": "male Sprague Dawley rats", "experiment": "Turpentine oil-induced increase in serum hepcidin in rats", "assay_type": "in vivo, rat", "conditions": "for Serum hepcidin concentration: 24 h post-TO", "quoted_text": "Measurements of serum hepcidin concentration were performed using a custom-made LC-MRM assay.\n6 hours post-TO application sublingual blood samples were taken and serum was prepared from whole blood using clot activator centrifugation tubes (Sarstedt). […] 24 h post-TO application rats were sacrificed by CO2 overdosing and blood was isolated by venipuncture for serum preparation as described above. […] Statistical analyses were performed using GraphPad Prism software (GraphPad Software, Inc., La Jolla, Calif.) by two-way repeated measurement analysis of variance followed by Dunnett's multiple comparisons post-hoc test comparing treatment groups to the vehicle control group."}, "[2]": {"biological_target": "T1, wild-type ALK2 (aa172-499) (Homo sapiens (Human), UniProt Q04771)", "T1 sequence (Q04771 172-499)": "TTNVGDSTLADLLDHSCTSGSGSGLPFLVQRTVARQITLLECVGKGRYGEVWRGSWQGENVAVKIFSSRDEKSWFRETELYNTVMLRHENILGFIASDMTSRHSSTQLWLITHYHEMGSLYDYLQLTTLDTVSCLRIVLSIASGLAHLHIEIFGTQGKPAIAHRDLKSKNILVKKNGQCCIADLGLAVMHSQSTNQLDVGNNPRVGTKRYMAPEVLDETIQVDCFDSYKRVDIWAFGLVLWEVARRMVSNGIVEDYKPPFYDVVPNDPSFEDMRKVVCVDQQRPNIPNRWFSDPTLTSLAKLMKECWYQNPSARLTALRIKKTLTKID", "experiment": "ADPGlo biochemical autophosphorylation assay, ALK2", "conditions": "15 uM ATP"}, "[3]": {"biological_target": "T1, wild-type ALK2 (aa172-499)", "experiment": "Caliper biochemical peptide phosphorylation assay, ALK2", "conditions": "Caliper peptide phosphorylation, 15 uM ATP; read-out: ALK2 IC50"}, "ALK5 (aa162-503)": {"biological_target": "ALK5 (aa162-503) (Homo sapiens (Human), UniProt P36897)", "sequence (P36897 162-503)": "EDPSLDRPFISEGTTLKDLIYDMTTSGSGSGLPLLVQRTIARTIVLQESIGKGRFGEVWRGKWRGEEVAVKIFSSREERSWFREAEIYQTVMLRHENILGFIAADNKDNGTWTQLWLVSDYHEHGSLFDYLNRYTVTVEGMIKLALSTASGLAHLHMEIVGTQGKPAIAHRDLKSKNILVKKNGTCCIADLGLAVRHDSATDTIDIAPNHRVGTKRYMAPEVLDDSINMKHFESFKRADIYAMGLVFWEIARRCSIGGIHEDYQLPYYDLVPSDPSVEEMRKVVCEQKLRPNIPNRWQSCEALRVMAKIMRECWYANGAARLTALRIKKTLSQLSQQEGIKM", "experiment": "Caliper biochemical peptide phosphorylation assay, ALK5", "conditions": "15 uM ATP", "method_in_brief": "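Baculovirus-expressed human GS+kinase-domain constructs (10 nM) with 2 uM fluorescein-labelled peptide and 15 uM ATP in 50 mM Hepes pH 7.5, 1 mM MgCl2, 12 mM MnCl2, 1 mM DTT, 10 uM Na3VO4, 60 min at 30 °C. EDTA stop; phospho/unphosphorylated peptide separated by microfluidic electrophoresis, r = p/(p+s); IC50 at half-maximal signal inhibition.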"}, "[4]": {"biological_target": "ALK2 FOP mutant (aa172-499 R206H) (Homo sapiens (Human), UniProt Q04771, R206H)", "sequence (Q04771 172-499 R206H)": "as the sequence (Q04771 172-499) above, with R35H counted along it", "experiment": "Caliper biochemical peptide phosphorylation assay, ALK2 FOP", "conditions": "Caliper peptide phosphorylation, R206H, 15 uM ATP; read-out: ALK2 FOP EPK IC50"}, "C57BL/6J male mice": {"system": "C57BL/6J male mice", "conditions": "mouse, in vivo"}, "ALK2(Q207D) mice": {"system": "ALK2(Q207D) mice", "experiment": "ALK2-dependent heterotopic ossification in ALK2(Q207D) transgenic mice", "assay_type": "in vivo, mouse", "conditions": "3 and 5 weeks post-induction, 10 mg/kg b.i.d. oral"}}, "data": [{"compound": "CC(C)n1cc(-c2cncc(-c3ccc4c(c3)CC(=O)N4C)c2)ccc1=O", "note": "[Example 1, 5-(1′-isopropyl-6′-oxo-1′,6′-dihydro-[3,3′-bipyridin]-5-yl)-1-methylindolin-2-one]", "values": [{"measurement": "Animals with radiographic evidence of beginning HO", "setting": "female Wistar rats; 4 weeks post-tenotomy, vehicle 100%", "value": 67, "unit": "%"}, {"measurement": "Total heterotopic bone volume", "setting": "female Wistar rats; 6 and 9 weeks post-surgery, versus vehicle", "value": "significant reduction of HO"}, {"measurement": "Cancellous BV/TV, %-change versus baseline", "setting": "[1]; micro-CT", "value": "8.9 ± 3.0", "unit": "%"}, {"measurement": "Cortical thickness, %-change versus baseline", "setting": "[1]; micro-CT", "value": "12.0 ± 2.2", "unit": "%"}, {"measurement": "Total BMD, %-change versus baseline", "setting": "[1]; micro-CT", "value": "5.6 ± 0.6", "unit": "%"}, {"measurement": "Trabecular number, %-change versus baseline", "setting": "[1]; micro-CT", "value": "−0.6 ± 5.4", "unit": "%"}, {"measurement": "Trabecular thickness, %-change versus baseline", "setting": "[1]; micro-CT", "value": "11.1 ± 2.9", "unit": "%"}, {"measurement": "Total BMC, %-change versus baseline", "setting": "[1]; pQCT", "value": "4.3 ± 1.7", "unit": "%"}, {"measurement": "Serum hepcidin levels", "setting": "male Sprague Dawley rats; 6 hours post-TO, 3 or 10 mg/kg p.o.", "value": "strongly suppressed"}, {"measurement": "Serum hepcidin concentration", "setting": "male Sprague Dawley rats; 3 mg/kg p.o.", "value": "returned to levels of vehicle-treated TO-challenged rats"}, {"measurement": "Serum hepcidin concentration", "setting": "male Sprague Dawley rats; 10 mg/kg p.o., p<0.001", "value": "significantly reduced"}, {"measurement": "IC50", "setting": "[2]", "value": 110, "unit": "nM"}, {"measurement": "IC50", "setting": "[3]", "value": 110, "unit": "nM"}, {"measurement": "IC50", "setting": "ALK5 (aa162-503)", "value": 2600, "unit": "nM"}, {"measurement": "IC50", "setting": "[4]", "value": 90, "unit": "nM"}, {"measurement": "Blood hemoglobin", "setting": "C57BL/6J male mice", "value": "significantly improved"}, {"measurement": "Hematocrit", "setting": "C57BL/6J male mice", "value": "significantly improved"}, {"measurement": "Females in which heterotopic bone was absent (micro-CT)", "setting": "ALK2(Q207D) mice", "value": "four of five"}, {"measurement": "Heterotopic bone (total heterotopic bone volume, micro-CT), males", "setting": "ALK2(Q207D) mice", "value": "absent"}, {"measurement": "Female mice with radiographic evidence of HO", "setting": "ALK2(Q207D) mice; vehicle 67%", "value": "one out of five"}, {"measurement": "Male mice with radiographic evidence of HO", "setting": "ALK2(Q207D) mice; vehicle 83%", "value": "none"}]}]}
